# Experimental data published in US20200054646A1, “USE OF PHENOTHIAZINE DERIVATIVE IN THE TREATMENT OF INFECTIOUS PURPURA OR PURPURA FULMINANS” (priority 2016, published 2020).
# Assays:
# [1] = test system: HDMEC infected with Nm2C4.3; assay: Cytoskeleton remodelling and endothelial cell junction integrity of infected HDMEC (Ezrin, Actin, VE-cadherin immunostaining); type: cell-based, human
# Procedure: (A) Experimental procedure: HDMEC were infected for 2 h with Nm2C4.3, treated for 1 h with gentamicin (150 μg/ml) and then 15 min with Trifluoperazine (50 μM) (or solvent alone as a control) and left in medium for 1 h before fixation. (B) Upper panels: Representative fluorescence microscopy showing the effect on the endothelial cell cytoskeleton remodelling analysed by immunostaining of Ezrin and Actin. Lower panels: Effect on the endothelial cell junction integrity was analysed by immunostaining of Actin and VE-cadherin. (C) Quantification of the bacterial colonization (upper panel) Ezrin recruitment and cortical actin polymerization at sites of bacterial adhesion (lower panel) was performed using Image J software.
# HDMECs were grown in their specific culture medium (Promocell #C-12210) and confluent monolayers were infected with 2C4.3. Briefly, bacteria were precultured in prewarmed cell culture medium for 1 h 30 min at 37° C. 5% CO2. The OD600 was adjusted to 0.1 and HDMECs were then overlaid with bacteria for 30 min (MOI of 100). Unbound bacteria were removed by three washes in cell culture media and infection was allowed to proceed for 1 h at 37° C. 5% CO2. Gentamicin was added at 150 μg/ml for 1 h, then after three washes in cell culture media, Trifluoperazine was applied where mentioned at 50 μM for 20 min. After three washes in cell culture media, cells were allowed to recover for 1 h in cell culture media. At the indicated time, cells were fixed with 4% Paraformaldehyde for 10 min. Immunolabelling was then performed as above described in example 4, using DAPI, Alexa Fluor 633 Phalloidin, Polyclonal antisera raised against Ezrin, obtained from Pr P. Mangeat (CRBM, Montpellier, France) and anti-human VE-Cadherin (eBioscience #BMS158). When indicated, HBMECs were grown on Thermanox coverslips coated with gelatin 2% for 2 days to reach confluency. Cells were then infected as above described in the presence or in the absence of 5 μM Trifluoperazine for 2 h. Cells were washed and fixed in 4% paraformaldehyde and immunolabelling was performed with a polyclonal antisera raised anti-Nm2C4.3 strain, anti-human PECAM-1 mouse monoclonal, clone HEC7 (ABCAM ab119339) or rabbit polyclonal 177 raised against PECAM-1, obtained from WA Muller (Northwestern University, Chicago, Ill., US), anti-[…] catenin (05-482, UBI), polyclonal antisera raised against Ezrin, Alexa Fluor 633 Phalloidin. Secondary antibodies were from Jackson ImmunoResearch Laboratories. Image acquisitions were performed on a Leica DM16000 with Yokogawa CSU-X1M1 system and CoolSnap HQ2 (Photometrics). Quantifications were done using ImageJ software (NIH).
# [2] = test system: N. meningitidis Nm2C4.3 strain; assay: Bactericidal activity on N. meningitidis in liquid culture (colony forming unit count); type: cell-based, Neisseria meningitidis; details: for viable count of the culture that contained 10^7 CFU/ml: 15 min treatment
# Procedure: N. meningitidis Nm2C4.3 strain grown in liquid culture at 10^7 CFU/ml were treated with increasing concentrations of Trifluoperazine (10 to 50 μM) or Gentamicin (150 μg/ml) for 15 minutes (A) Bactericidal activity was determined by the count of colony forming units on GCB agar plates 24 h after treatment. (B) Images of the non-treated bacteria or bacteria treated with 30 μM TFP grown for 24 h on GCB agar plates.
# Nm2C4.3, a piliated capsulated Opa^−Opc^− variant of the serogroup C meningococcal clinical isolate 8013, was cultured in Dulbecco's Modified Eagle Medium (DMEM) 4.5 g/L-Glutamax media 0,1% BSA during two hours at 37° C. 5% C02. A bacterial suspension at optical density (OD) 0.1 was then distributed in 24-well plate (1 ml/well). After 1 hour of incubation, Trifluoperazine (Sigma #T8516, stock solution in PBS) was added to obtain final concentrations of 10, 20, 30, 40, and 50 μM. Gentamicin (150 μg/ml in DMEM) and PBS alone were used as controls. After 15 min treatment, serial dilutions were performed in physiological water and 100 μl of each dilution were plated on Petri dishes containing GCB solid media (BD, Difco GC media) containing supplements, incubated overnight and the colony forming units were counted.
# [3] = test system: Nm2C4.3 microcolonies on HBMEC; assay: Dispersion of meningococcal microcolonies at the surface of infected human endothelial cells; type: cell-based, Neisseria meningitidis
# Procedure: Human […] microvascular endothelial cells (HBMEC) were infected with Nm2C4.3 for 1 h 30, treated with Trifluoperazine (10-40 μM) for 30 minutes, before fixation and immunofluorescence analysis using anti-Nm2C4.3 antibody and Alexa Fluor 633 Phalloidin. (A) Representative fluorescence microscopy showing bacterial colony (white dots) formed at the surface of the endothelial cells. (B) Quantification of the bacterial colonization was performed using Image J software.
# HBMEC, a human endothelial cell line isolated from bone marrow capillaries (Schweitzer et al., 1997) were grown in Dulbecco's Modified Eagle Medium (DMEM) 4.5 g/L-Glutamax (ThermoFischer) 10% FBS. Cells were grown on Thermanox coverslips coated with gelatin 2% (BD Difco #214340) for 2 days to reach confluency. Cells were then infected with a suspension of Nm2C4.3 (˜10^7 CFU/ml) in DMEM/FBS during 30 minutes to allow bacterial adhesion. Cells were then washed three times with medium to remove non-adherent bacteria and infection was pursued for 1 h 30: adherent bacteria grew at the endothelial cell surface and formed micro-colonies. Trifluoperazine was then added to obtain final concentrations of 10, 20, 30 and 40 μM. After incubation for 30 minutes, cells were washed and fixed in 4% Paraformaldehyde for 10 min, washed three times with PBS, and permeabilized with 0.1% Triton X-100 in PBS for 10 min. Cells were blocked for 30 min with 3% BSA in PBS and were incubated for 2 h with the primary antibodies (Rabbit polyclonal anti-Nm2C4.3 strain, kindly provided by Dr X. Nassif, INEM, Paris). After three washes with PBS, cells were incubated for 1 h with […] anti-rabbit IgG (Jackson ImmunoResearch Laboratories), together with Alexa Fluor 633 Phalloidin (Thermofischer) and DAPI (0.5 mg ml-1, Sigma Aldrich) to stain Actin and nuclei, respectively. Labelled preparations were mounted in Glycergel media (DAKO) and image acquisitions were performed with a DM16000 microscope (Leica, X40). Quantification was done with ImageJ software (NIH). Results are presented as a vascular colonisation index corresponding to the area occupied by the fluorescently labelled bacteria per fields in relation to the area occupied by the fluorescently labelled human endothelial cells (Actin staining). Statistical analysis were performed with Student t test.
# [4] = Gentamicin 150 μg/ml for 1 h alone
# [5] = Trifluoperazine 50 μM in combination with gentamicin 150 μg/ml
Compound,"Ezrin recruitment, cortical actin polymerization, VE-cadherin distribution under residual colonies [1, 4]","number of colonies present at the cell surface [1, 4]","bactericidal effect (in words) ([2]; Gentamicin 150 μg/ml, 15 min)",dispersion of microcolonies at the endothelial cell surface ([3]; Gentamicin 150 μg/ml),"Ezrin recruitment under residual bacteria [1, 5]","dispersion of bacterial colonies at the endothelial cell surface [1, 5]","endothelial cell junction integrity (VE-cadherin staining, gaps between cells) [1, 5]",viable count of the culture that contained 10^7 CFU/ml ([2]; Trifluoperazine 50 μM),viable count of the culture that contained 10^7 CFU/ml ([2]; Trifluoperazine 10 to 30 μM),"concentration range of dose-dependent microcolony dispersion ([3]; 30 min, HBMEC and primary HDMEC) [µM]","dispersion of compact microcolonies already established at the endothelial cell surface ([3]; treatment for 30 min, HBMEC (also HDMEC))"
"CN[C@@H]1[C@@H](O)C(O[C@@H]2[C@@H](O)[C@H](O[C@H]3O[C@H]([C@@H](C)NC)CC[C@H]3N)[C@@H](N)C[C@H]2N)OC[C@]1(C)O (stereo partly drawn) [Gentamicin, (3R,4R,5R)-2-{[(1S,2S,3R,4S,6R)-4,6-diamino-3-{[(2R,3R,6S)-3-amino-6-[(1R)-1-(methylamino)ethyl]oxan-2-yl]oxy}-2-hydroxycyclohexyl]oxy}-5-methyl-4-(methylamino)oxane-3,5-diol]",still induced Ezrin recruitment,reduced the number of colonies,killed all bacteria,poorly induced the dispersion,–,–,–,–,–,–,–
CN1CCN(CCCN2c3ccccc3Sc3ccc(C(F)(F)F)cc32)CC1 [Trifluoperazine],–,–,–,–,Few Ezrin recruitment,induced the dispersion of most of the bacterial colonies,preserved endothelial cell junction integrity,10^3 CFU/ml,10^6 CFU/ml,10 to 40,induced their dispersion
